The results in this text go back to BindingDB's records for doi:10.1021/jm2006222.

The target of this test is 3-phosphoinositide-dependent protein kinase 1 (Homo sapiens) (UniProt O15530). The test can be described thus: Inhibition of recombinant PDK1.

The structures appear in SMILES notation.

In general, IC50 refers to the concentration needed to halve the response being measured. For `CCN1CCN(c2ccc(Nc3cc(N(C)C(=O)Nc4c(Cl)c(OC)cc(OC)c4Cl)ncn3)cc2)CC1`, the IC50 is over 10 µM.
